IC50 data for 13 molecules are collected here from ChEMBL document CHEMBL3813683, “Design, synthesis and anti-cancer activity evaluation of podophyllotoxin-norcantharidin hybrid drugs” (Bioorg Med Chem Lett, 2016).

One experiment concerns MCF7. Put plainly: Cytotoxicity against human MCF7 cells after 36 hrs by MTT assay. The following applies: MCF7, 36 h. Type of experiment: functional, cell-based.
A further experiment relates to HeLa. Put plainly: Cytotoxicity against human HeLa cells after 36 hrs by MTT assay. Type of experiment: functional, cell-based.
Experiment [1] in a line: Cytotoxicity against HEK293T cells after 36 hrs by MTT assay. It counts as cell-based. The conditions noted are these: Homo sapiens, HEK-293T.
A further experiment has as its system A549. Put plainly: Cytotoxicity against human A549 cells after 36 hrs by MTT assay. Type of experiment: functional, cell-based. The following applies: A549, 36 h.

Each structure is given as a SMILES string.

Regarding `COc1cc(C2c3cc4c(cc3[C@H](OC(=O)[C@@H](C)N3C(=O)C5C6CCC(O6)C5C3=O)[C@H]3COC(=O)[C@H]23)OCO4)cc(OC)c1OC` (some centres not stated), the IC50 with MCF7 amounted to 1.17 µM; with HeLa it was 1.14 µM; in experiment [1], 80.8 µM; in the experiment on A549, 2 µM.

In the case of `COc1cc(C2c3cc4c(cc3[C@H](OC(=O)[C@@H](C)N3C(=O)c5ccccc5C3=O)[C@H]3COC(=O)[C@H]23)OCO4)cc(OC)c1OC` (some centres not stated), the IC50 in the experiment on MCF7 amounted to 8.29 µM; in the experiment with HeLa, 11.8 µM; in experiment [1], 59.3 µM; with A549, 8.08 µM.

Take `COc1cc(C2c3cc4c(cc3[C@H](OC(=O)[C@@H](C)N3C(=O)C5CCCCC5C3=O)[C@H]3COC(=O)[C@H]23)OCO4)cc(OC)c1OC` (some centres not stated): the IC50 in the experiment with MCF7 came out at 2.51 µM; in the experiment on HeLa, 2.15 µM; in experiment [1], 54.5 µM; in the experiment with A549, 2.11 µM.

Regarding `COc1cc(C2c3cc4c(cc3[C@H](OC(=O)[C@H](C)N3C(=O)C5C6CCC(O6)C5C3=O)[C@H]3COC(=O)[C@H]23)OCO4)cc(OC)c1OC` (some centres not stated), the IC50 is 1.22 µM in the experiment on MCF7, 3.02 µM with HeLa, 64.2 µM in experiment [1] and 1.18 µM in the experiment with A549.

Consider `COc1cc(C2c3cc4c(cc3[C@H](OC(=O)C(Cc3ccccc3)N3C(=O)c5ccccc5C3=O)[C@H]3COC(=O)[C@H]23)OCO4)cc(OC)c1OC` (some centres not stated), for which the IC50 with MCF7 is 6.41 µM; in the experiment on HeLa, 7.12 µM; in experiment [1], 65.9 µM; in the experiment with A549, 4.16 µM.

Consider `COc1cc(C2c3cc4c(cc3[C@H](OC(=O)C(C)N3C(=O)C5CCCCC5C3=O)[C@H]3COC(=O)[C@H]23)OCO4)cc(OC)c1OC` (some centres not stated), for which the IC50 was found to be 1.87 µM in the experiment on MCF7, 2.01 µM with HeLa, 90.7 µM in experiment [1] and 2.34 µM in the experiment on A549.

Take `COc1cc(C2c3cc4c(cc3[C@H](OC(=O)[C@H](Cc3ccccc3)N3C(=O)C5C6CCC(O6)C5C3=O)[C@H]3COC(=O)[C@H]23)OCO4)cc(OC)c1OC` (some centres not stated): the IC50 in the experiment on MCF7 turned out to be 6.53 µM; with HeLa, 8.79 µM; in experiment [1] it was 70.3 µM; with A549, 3.69 µM.

In the case of `COc1cc(C2c3cc4c(cc3[C@H](OC(=O)C(C)N3C(=O)C5C6CCC(O6)C5C3=O)[C@H]3COC(=O)[C@H]23)OCO4)cc(OC)c1OC` (some centres not stated), the IC50 with MCF7 stood at 1.74 µM; with HeLa, 1.86 µM; in experiment [1], 53.2 µM; in the experiment on A549, 1.91 µM.

For `COc1cc(C2c3cc4c(cc3[C@H](OC(=O)[C@@H](Cc3ccccc3)N3C(=O)c5ccccc5C3=O)[C@H]3COC(=O)[C@H]23)OCO4)cc(OC)c1OC` (some centres not stated), the IC50 in the experiment on MCF7 worked out at 25.5 µM; in the experiment with HeLa, 18.7 µM; in experiment [1], 50.9 µM; in the experiment with A549, 7.28 µM.

On to `COc1cc(C2c3cc4c(cc3[C@H](OC(=O)[C@H](Cc3ccccc3)N3C(=O)c5ccccc5C3=O)[C@H]3COC(=O)[C@H]23)OCO4)cc(OC)c1OC` (some centres not stated), for which the concentration for half-maximal inhibition (IC50) with MCF7 is 10.1 µM; in the experiment on HeLa, 12.5 µM; in experiment [1], 54.8 µM; in the experiment with A549, 8.11 µM.

As for `COc1cc(C2c3cc4c(cc3[C@H](OC(=O)[C@H](C)N3C(=O)C5CCCCC5C3=O)[C@H]3COC(=O)[C@H]23)OCO4)cc(OC)c1OC` (some centres not stated), the IC50 in the experiment on MCF7 came to 4.59 µM; in the experiment with HeLa, 5.81 µM; in experiment [1] it was 74.2 µM; with A549 it was 2.44 µM.

Consider `COc1cc(C2c3cc4c(cc3[C@H](OC(=O)[C@@H](Cc3ccccc3)N3C(=O)C5C6CCC(O6)C5C3=O)[C@H]3COC(=O)[C@H]23)OCO4)cc(OC)c1OC` (some centres not stated), for which the IC50 with MCF7 came to 2.75 µM; in the experiment with HeLa, 3.09 µM; in experiment [1], 67.7 µM; in the experiment on A549 it was 4.32 µM.

Turning to `COc1cc(C2c3cc4c(cc3[C@H](OC(=O)C(C)N3C(=O)c5ccccc5C3=O)[C@H]3COC(=O)[C@H]23)OCO4)cc(OC)c1OC` (some centres not stated), the IC50 turned out to be 16.8 µM in the experiment with MCF7, 17.2 µM with HeLa, 51.3 µM in experiment [1] and 5.37 µM in the experiment on A549.
